Measured values reported in patent US20090062255A1, “TUMOR-TARGETING EVALUATION METHODOLOGY AND COMPOUNDS RELATED THERETO” (THALLION PHARMACEUTICALS INC., priority 2007, published 2009).
Read-outs that look alike come from different tables or passages of the source.

How the values were obtained:
[1] = system: HT-29 (colorectal carcinoma); experiment: In vitro cytotoxic activity (GI50, propidium iodide), HT-29; type: cell-based; conditions: for GI50: Homo sapiens, HT-29, 96 h, method (1), 96 hours
Experimental: (§1) Procedures used for each series of tests are described below.
(§2) Compounds were dissolved at 10 mM in DMSO. […] The following day, propidium iodide was added to one of the two plates and fluorescence measured (Tz). […] Each compound was tested at each concentration and in triplicates. The equivalent cell number was determined after adding propidium iodide by measuring the signal by fluorescence (C for control).

[2] = system: SF268 (CNS); experiment: In vitro cytotoxic activity (GI50, propidium iodide), SF-268; type: cell-based; conditions: Homo sapiens, SF-268, 96 h, method (1), 96 hours
Experimental: as §1, §2

[3] = system: PC-3 (prostate adenocarcinoma); experiment: In vitro cytotoxic activity (GI50, propidium iodide), PC-3; type: cell-based, human; conditions: Homo sapiens, 96 h, method (1)
Experimental: as §1, §2

[4] = system: MDA-MB-231 (mammary gland adenocarcinoma); experiment: In vitro cytotoxic activity (GI50, propidium iodide), MDA-MB-231; type: cell-based, human; conditions: Homo sapiens, MDA-MB-231, 96 h, method (1), 96 hours
Experimental: as §1, §2

[5] = molecular target: T1, human 5-LO (Homo sapiens, UniProt P09917); experiment: 5-LO inhibition assay (EIA quantitation of LTB4); type: biochemical; conditions: 4 μM compound, 1% DMSO; read-out: Percentage of inhibition or binding activity, 5-LO (4 μM)
T1 construct: Human peripheral blood […] (PMNs) were isolated through a Ficoll-Paque density gradient; endogenous in cells; host or cells: human peripheral blood mononuclear cells (PBML/PMNs)
T1 sequence (P09917 1-674): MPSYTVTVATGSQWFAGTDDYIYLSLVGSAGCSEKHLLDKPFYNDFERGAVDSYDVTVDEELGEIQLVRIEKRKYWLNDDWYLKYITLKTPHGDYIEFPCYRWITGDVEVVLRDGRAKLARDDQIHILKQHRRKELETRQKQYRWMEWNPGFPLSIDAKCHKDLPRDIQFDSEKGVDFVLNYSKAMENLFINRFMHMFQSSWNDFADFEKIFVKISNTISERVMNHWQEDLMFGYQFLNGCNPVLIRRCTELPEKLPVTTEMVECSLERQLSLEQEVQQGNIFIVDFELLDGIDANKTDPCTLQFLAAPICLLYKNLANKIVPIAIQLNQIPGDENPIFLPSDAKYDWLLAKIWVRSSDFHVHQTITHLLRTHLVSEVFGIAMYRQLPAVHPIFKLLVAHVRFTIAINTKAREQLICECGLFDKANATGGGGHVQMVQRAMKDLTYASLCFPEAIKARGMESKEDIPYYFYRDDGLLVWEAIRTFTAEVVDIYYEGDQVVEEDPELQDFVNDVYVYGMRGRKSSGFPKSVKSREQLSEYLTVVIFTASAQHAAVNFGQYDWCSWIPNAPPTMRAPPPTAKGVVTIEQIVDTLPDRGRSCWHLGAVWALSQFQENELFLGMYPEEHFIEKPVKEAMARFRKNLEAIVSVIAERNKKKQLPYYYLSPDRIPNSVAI
Experimental: 5-Lipoxygenase (5-LO) catalyzes the oxidative metabolism of arachidonic acid to 5-hydroxyeicosatetraenoic acid (5-HETE), the initial reaction leading to formation of leukotrienes.
Human peripheral blood […] (PMNs) were isolated through a Ficoll-Paque density gradient. PMNs were stimulated by addition A23187 (30 μM final concentration). […] Following incubation, samples were neutralized with NaOH and centrifuged. Leukotriene B4 content was measured in the supernatant using an Enzyme Immunosorbant Assay (EIA) assay. The experiment was performed in triplicate.
The procedures used are based on the respective references mentioned above and the conditions are summarized in Tables 16 (enzyme assays) and 17 (radioligand receptor assays).
Binding Assays were done at constant concentration of the compound, in 1% DMSO as vehicle, and are specified below each enzyme/receptor type in Table 18. The results are expressed in Table 18 as percentage inhibition. Significance was obtained when a result was ≧50% binding or inhibition (underlined).

[6] = system: ERK phosphorylation, human pancreatic MiaPaCa-2 cell line (mutated K-Ras); experiment: EGF-stimulated ERK phosphorylation in MiaPaCa-2 cells; type: cell-based
Source text: To evaluate whether ECO-4601 interferes with K-Ras signalling, the human pancreatic MiaPaCa-2 cell line, a tumor cell line known to express mutated K-Ras, was employed.

[7] = for MTD: mouse, in vivo
[8] = system: U 373 astrocytoma cell line; experiment: MTT cytotoxicity, U 373 cell line; type: cell-based; conditions: U373 MG, 96 h, Human
Experimental: The cytotoxic activity of Compound 1 was further evaluated using a panel of brain tumor cell lines. This study was performed in collaboration with INSERM (Grenoble, France). Tumor cells (5,000 to 10,000 cells per well depending on their doubling time) were plated in 96-well flat-bottom plates and incubated for 24 hours before treatment. Tumor cells were then incubated for 96 hours with seven different concentrations of Compound 1: […], 0.01, and 0.001 μM. The in vitro cytotoxic activity was determined by a standard MTT assay.

[9] = system: MES-SA/DX5 (doxorubicin-resistant P-glycoprotein over-expressing variant); experiment: Growth inhibitory MTT assay, MES-SA/DX5; type: cell-based, human; conditions: 72 hours, treated over control
Experimental: Growth inhibitory activity of ECO-4601 (Compound 1) and other dibenzodiazepinone analogs was evaluated on a panel of 4 human tumor cell lines: the human uterine sarcoma MES-SA and its doxorubicin-resistant P-glycoprotein over-expressing variant, MES-SA/DX5 as well as non-aggressive and highly aggressive human breast cell lines, MCF-7 and MDA-MB-231, respectively. These four cell lines were obtained from the American Type Culture Collection (Manassas, Va.) and cultured in RPMI plus 10% fetal bovine serum (FBS) and maintained at 37° C. with 5% CO2.
Exponentially growing cells (5,000 cells per well time; cell number determined with a hemocytometer) were seeded in 96-well flat-bottom plates and allowed to grow overnight. Cells were then incubated for 72 hours with three different concentrations of ECO-4601 or analogs: 30,10, and 3 μM. The in vitro growth inhibitory activity was determined by a commercial MTT assay. All measurements were done in quadruplicate and each experiment was performed 2-3 times. The lower the value, the more cytotoxic is the compound.

| Structure (SMILES) | GI50 [3] | inhibition at 4 µM [5] | further results |
| --- | --- | --- | --- |
| CC(=O)Oc1cc(OC(C)=O)c2c(c1)N(CC=C(C)CCC=C(C)CCC=C(C)C)C(=O)c1cccc(O)c1N2 [Compound 9, 6,8-diacetoxy-10-farnesyl-4-hydroxy-5,10-dihydro-dibenzo[b,e][1,4]diazepin-11-one] | 1.44 µM | 96% | GI50 [1]: 12.6 µM; GI50 [2]: 1.88 µM; GI50 [4]: 2.48 µM |
| COc1cccc2c1Nc1c(O)cc(O)cc1N(C/C=C(\C)CC/C=C(\C)CCC=C(C)C)C2=O [Compound 4, 10-farnesyl-6,8-dihydroxy-4-methoxy-5,10-dihydro-dibenzo[b,e][1,4]diazepin-11-one] |  | 98% |  |
| CC(C)=CCC/C(C)=C/CC/C(C)=C/CN1C(=O)c2cccc(O)c2Nc2c(O)cc(O)cc21 [Compound 1, 10-farnesyl-4,6,8-trihydroxy-5,10-dihydrodibenzo[b,e][1,4]diazepin-11-one] |  | 99% | inhibition of EGF-stimulated ERK phosphorylation [6]: dose and time dependent inhibition; MTD ([7]; iv): 150 mg/kg; IC50 [8]: 3.8 ± 1.4 µM; % T/C at 10 μM [9]: 100% |
| COc1cc(OC)c2c(c1)N(CC=C(C)CCC=C(C)CCC=C(C)C)C(=O)c1cccc(OC)c1N2 [Compound 8, 10-farnesyl-4,6,8-trimethoxy-5,10-dihydro-dibenzo[b,e][1,4]diazepin-11-one] |  | -13% |  |
| COc1cc(OC)c2c(c1)N(C/C=C(\C)CC/C=C(\C)CCC=C(C)C)C(=O)c1cccc(O)c1N2 [Compound 6, 10-farnesyl-4-hydroxy-6,8-dimethoxy-5,10-dihydro-dibenzo[b,e][1,4]diazepin-11-one] |  | 71% |  |
| CC(C)=CCC/C(C)=C/CC/C(C)=C/CN1C(=O)c2cccc(O)c2N(Cc2ccccc2)c2c(O)cc(O)cc21 [Compound 3, 5-benzyl-10-farnesyl-4,6,8-trihydroxy-5,10-dihydro-dibenzo[b,e][1,4]diazepin-11-one] |  | 72% |  |
| CC(C)CCCC(C)CCCC(C)CCN1C(=O)c2cccc(O)c2Nc2c(O)cc(O)cc21 (stereo not drawn) [Compound 46, 10-(3,7,11-trimethyldodecyl)-4,6,8-trihydroxy-5,10-dihydro-dibenzo[b,e][1,4]diazepin-11-one] | 0.9 µM | 65% |  |
| CC(=O)Oc1cccc2c1Nc1c(OC(C)=O)cc(O)cc1N(CC=C(C)CCC=C(C)CCC=C(C)C)C2=O [Compound 10, 4,6-diacetoxy-10-farnesyl-8-hydroxy-5,10-dihydro-dibenzo[b,e][1,4]diazepin-11-one] | 1.35 µM | 97% | GI50 [1]: 13 µM; GI50 [2]: 2.02 µM; GI50 [4]: 1.55 µM |
| COc1cccc2c1Nc1c(OC)cc(O)cc1N(CC=C(C)CCC=C(C)CCC=C(C)C)C2=O [Compound 7, 10-farnesyl-8-hydroxy-4,6-dimethoxy-5,10-dihydro-dibenzo[b,e][1,4]diazepin-11-one] |  | 63% |  |
| CC(=O)Oc1cc(O)c2c(c1)N(CC=C(C)CCC=C(C)CCC=C(C)C)C(=O)c1cccc(OC(C)=O)c1N2 [Compound 11, 4,8-diacetoxy-10-farnesyl-6-hydroxy-5,10-dihydro-dibenzo[b,e][1,4]diazepin-11-one] | 5.35 µM | 97% | GI50 [1]: 16 µM; GI50 [2]: 5.79 µM; GI50 [4]: 7.72 µM |
| COc1cc(O)cc2c1Nc1c(O)cccc1C(=O)N2C/C=C(\C)CC/C=C(\C)CCC=C(C)C [Compound 5, 10-farnesyl-4,8-dihydroxy-6-methoxy-5,10-dihydro-dibenzo[b,e][1,4]diazepin-11-one] |  | 98% |  |
| CC(C)=CCC/C(C)=C/CC/C(C)=C/CN1C(=O)c2cccc(O)c2N(C)c2c(O)cc(O)cc21 [Compound 2, 10-farnesyl-4,6,8-trihydroxy-5-methyl-5,10-dihydro-dibenzo[b,e][1,4]diazepin-11-one] |  | 93% | weight losses ([7]; for several days post-injection): about 7%; MTD ([7]; ip): ≥ 50 mg/kg; increase of cytotoxic activity compared to parent Compound 1 ([1]; HT-29 cell line): fifty fold increase |
| CC(=O)Oc1cc(OC(C)=O)c2c(c1)N(CC=C(C)CCC=C(C)CCC=C(C)C)C(=O)c1cccc(OC(C)=O)c1N2 [Compound 12, 4,6,8-triacetoxy-10-farnesyl-5,10-dihydro-dibenzo[b,e][1,4]diazepin-11-one] |  | 86% |  |
